Source: patent publication US10689354B2, “Aminoazole derivative” (Teijin Pharma Limited, priority 2015, dated 2020)

Tests used:
[1] = target: T1, human androgen receptor (Homo sapiens, UniProt P10275); assay: Reporter assay of an androgen receptor responsive sequence (luciferase, transiently transfected HEK293 cells); format: cell-based; conditions: 24 hours incubation, relative to activity of 100 nM DHT, read-out: AR transcriptive activity (pEC50) (converted)
T1 construct: expressed in transfected cells; host or cells: HEK293
T1 sequence (P10275 1-920): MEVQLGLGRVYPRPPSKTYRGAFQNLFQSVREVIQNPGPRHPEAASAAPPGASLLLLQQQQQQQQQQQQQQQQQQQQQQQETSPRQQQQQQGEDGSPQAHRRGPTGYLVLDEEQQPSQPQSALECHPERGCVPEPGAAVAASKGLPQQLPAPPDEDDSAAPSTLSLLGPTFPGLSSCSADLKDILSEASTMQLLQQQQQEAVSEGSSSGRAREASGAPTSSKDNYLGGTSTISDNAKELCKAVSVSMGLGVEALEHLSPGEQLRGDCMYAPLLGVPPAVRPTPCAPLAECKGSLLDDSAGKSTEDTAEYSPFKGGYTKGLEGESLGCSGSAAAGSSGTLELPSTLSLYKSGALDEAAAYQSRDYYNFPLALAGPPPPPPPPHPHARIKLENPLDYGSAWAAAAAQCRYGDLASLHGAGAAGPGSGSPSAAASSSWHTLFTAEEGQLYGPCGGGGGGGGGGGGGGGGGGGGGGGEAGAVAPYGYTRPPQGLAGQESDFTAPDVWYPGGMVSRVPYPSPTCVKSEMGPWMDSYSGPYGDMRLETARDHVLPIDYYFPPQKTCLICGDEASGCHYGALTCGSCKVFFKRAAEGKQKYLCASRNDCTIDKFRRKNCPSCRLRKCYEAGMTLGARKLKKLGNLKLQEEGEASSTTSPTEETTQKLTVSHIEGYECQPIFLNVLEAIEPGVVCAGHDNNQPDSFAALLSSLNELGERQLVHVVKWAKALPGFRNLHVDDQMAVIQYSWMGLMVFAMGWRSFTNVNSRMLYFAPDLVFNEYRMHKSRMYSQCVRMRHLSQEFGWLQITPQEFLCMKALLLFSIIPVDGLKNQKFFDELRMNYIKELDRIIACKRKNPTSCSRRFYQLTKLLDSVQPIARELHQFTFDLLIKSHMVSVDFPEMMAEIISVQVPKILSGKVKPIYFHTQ
Method in brief: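 HEK293 cells transiently transfected for 3 h with ARE-firefly luciferase, full-length human AR and TK-Renilla plasmids, then exposed to compound for 24 h at 37 °C in 5% charcoal-treated FBS/DMEM. Dual-Glo luminescence read; pEC50 from 4-parameter fit relative to 100 nM DHT.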

[2] = target: T2, androgen receptor (AR-LBD) (Rattus norvegicus, UniProt P15207); assay: Evaluation of androgen receptor affinity (PolarScreen Androgen Receptor Competitor Assay Kit, Red; fluorescence polarization); conditions: 22° C. for 5 hours, relative to binding rate of 1 μM DHT, read-out: AR affinity (pEC50) (converted)
T2 construct: 5 μL of 2×AR-LBD/Fluoromone AL Red Complex contained in the kit; purchased Invitrogen
T2 sequence (P15207 651-882 limits assumed): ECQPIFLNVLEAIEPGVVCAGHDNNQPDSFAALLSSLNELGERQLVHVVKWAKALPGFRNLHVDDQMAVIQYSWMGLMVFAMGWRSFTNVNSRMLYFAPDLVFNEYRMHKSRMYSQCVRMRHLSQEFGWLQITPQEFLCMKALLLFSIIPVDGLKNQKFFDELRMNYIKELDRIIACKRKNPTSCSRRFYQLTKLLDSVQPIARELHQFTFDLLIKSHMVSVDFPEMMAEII
Method in brief: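 pEC50 values reflect tracer displacement from AR-LBD (Fluoromone AL Red complex) measured by fluorescence polarization after 5 h at 22° C, normalized to 1 μM DHT and fitted with a 4-parameter model.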

| EC50 [1] | EC50 [2] | SMILES |
| --- | --- | --- |
| 79.4 nM | 15.8 nM | CCc1oc(N(Cc2cc3ccccc3s2)c2ccc(C#N)cc2)nc1C(=O)NS(C)(=O)=O [Compound 626, 2-[N-(benzothiophen-2-ylmethyl)-4-cyano-anilino]-5-ethyl-N-methylsulfonyl-oxazole-4-carboxamide] |
| > 10000 nM | 31.6 nM | Cc1sc(N(Cc2ccccc2)c2ccc(C#N)cc2)nc1C(=O)NS(=O)(=O)C(F)(F)F [Compound 364, 2-(N-benzyl-4-cyano-anilino)-5-methyl-N-(trifluoromethylsulfonyl)thiazole-4-carboxamide] |
| 251 nM | 25.1 nM | Cc1sc(N(CCc2ccccc2O)c2ccc(C#N)cc2)nc1C(=O)NS(C)(=O)=O [Compound 379, 2-[4-cyano-N-[2-(2-hydroxyphenyl)ethyl]anilino]-5-methyl-N-methylsulfonyl-thiazole-4-carboxamide] |
| 100 nM | 20 nM | Cc1sc(N(CCc2ccc(C#N)cc2)Cc2ccc(OC(F)(F)F)cc2)nc1C(=O)NS(=O)(=O)Cc1cccnc1 [Compound 324, 2-[2-(4-cyanophenyl)ethyl-[[4-(trifluoromethoxy)phenyl]methyl]amino]-5-methyl-N-(3-pyridylmethylsulfonyl)thiazole-4-carboxamide] |
| 501 nM | 158 nM | Cc1ccccc1CN(c1ccc(C#N)cc1)c1nc(C(=O)NS(C)(=O)=O)c(C)s1 [Compound 45, 2-[4-cyano-N-(o-tolylmethyl)anilino]-5-methyl-N-methylsulfonyl-thiazole-4-carboxamide] |
| 1260 nM | 31.6 nM | COCCCS(=O)(=O)NC(=O)c1nc(N(Cc2cc(OC(F)F)ccc2F)c2ccc(C#N)cc2)sc1C [Compound 521, 2-[4-cyano-N-[[5-(difluoromethoxy)-2-fluoro-phenyl]methyl]anilino]-N-(3-methoxypropylsulfonyl)-5-methyl-thiazole-4-carboxamide] |
| 100 nM | 31.6 nM | Cc1sc(N(Cc2ccc(C(F)(F)F)cc2F)c2ccc(C#N)cc2)nc1C(=O)NS(C)(=O)=O [Compound 498, 2-[4-cyano-N-[[2-fluoro-4-(trifluoromethyl)phenyl]methyl]anilino]-5-methyl-N-methylsulfonyl-thiazole-4-carboxamide] |
| 63.1 nM | 50.1 nM | [2H]c1c([2H])c([2H])c(C([2H])([2H])N(c2ccc(C#N)cc2)c2nc(C(=O)NS(C)(=O)=O)c(C)s2)c([2H])c1[2H] [Compound 388, 2-(4-cyano-N-[dideuterio-(2,3,4,5,6-pentadeuteriophenyl)methyl]anilino)-5-methyl-N-methylsulfonyl-thiazole-4-carboxamide] |
| > 10000 nM | 79.4 nM | Cc1oc(N(CCC2CCCC2)c2ccc(C#N)cc2)nc1C(=O)NS(C)(=O)=O [Compound 622, 2-[4-cyano-N-(2-cyclopentylethyl)anilino]-5-methyl-N-methylsulfonyl-oxazole-4-carboxamide] |
| 3160 nM | 79.4 nM | COC[C@H](C)Oc1ccc(CN(c2ccc(C#N)cc2)c2nc(C(=O)NS(C)(=O)=O)c(C)s2)cc1 [Compound 584, 2-[4-cyano-N-[[4-[(1S)-2-methoxy-1-methyl-ethoxy]phenyl]methyl]anilino]-5-methyl-N-methylsulfonyl-thiazole-4-carboxamide] |
| 398 nM | 63.1 nM | Cc1sc(N(CCc2ccc(OC(F)F)cc2)Cc2ccc(F)cc2)nc1C(=O)NS(C)(=O)=O [Compound 159, 2-[2-[4-(difluoromethoxy)phenyl]ethyl-[(4-fluorophenyl)methyl]amino]-5-methyl-N-methylsulfonyl-thiazole-4-carboxamide] |
| 158 nM | 20 nM | Cc1sc(N(Cc2ccc(OC(F)(F)F)c(F)c2)c2ccc(C#N)cc2)nc1C(=O)NS(C)(=O)=O [Compound 420, 2-[4-cyano-N-[[3-fluoro-4-(trifluoromethoxy)phenyl]methyl]anilino]-5-methyl-N-methylsulfonyl-thiazole-4-carboxamide] |
| 1000 nM | 79.4 nM | Cc1sc(N(CC2CCC3(CC2)CC3)c2ccc(C#N)cc2)nc1C(=O)NS(C)(=O)=O [Compound 489, 2-[4-cyano-N-(spiro[2.5]octan-6-ylmethyl)anilino]-5-methyl-N-methylsulfonyl-thiazole-4-carboxamide] |
| 1260 nM | 63.1 nM | Cc1sc(N(Cc2ccccc2)c2ccc(C#N)cc2)nc1C(=O)NS(=O)(=O)C1CC1 [Compound 363, 2-(N-benzyl-4-cyano-anilino)-N-cyclopropylsulfonyl-5-methyl-thiazole-4-carboxamide] |
| > 10000 nM | 100 nM | Cc1sc(N(Cc2ccc(OCc3cccnc3)cc2)c2ccc(C#N)cc2)nc1C(=O)NS(C)(=O)=O [Compound 567, 2-[4-cyano-N-[[4-(3-pyridylmethoxy)phenyl]methyl]anilino]-5-methyl-N-methylsulfonyl-thiazole-4-carboxamide] |
| 63.1 nM | 31.6 nM | Cc1sc(N(Cc2ccc(OC(F)(F)F)cc2)c2ccc(C#N)cc2)nc1C(=O)NS(C)(=O)=O [Compound 7, 2-[4-cyano-N-[[4-(trifluoromethoxy)phenyl]methyl]anilino]-5-methyl-N-methylsulfonyl-thiazole-4-carboxamide] |
| 316 nM | 63.1 nM | CS(=O)(=O)NC(=O)c1nc(N(Cc2ccccc2Cl)c2ccc(C#N)cc2)sc1Cl [Example 263, 5-chloro-2-[N-[(2-chlorophenyl)methyl]-4-cyano-anilino]-N-methylsulfonyl-thiazole-4-carboxamide] |
| 158 nM | 50.1 nM | Cc1sc(N(CCC2CC3CCC2C3)c2ccc(C#N)cc2)nc1C(=O)NS(C)(=O)=O (stereo not drawn) [Compound 482, 2-[4-cyano-N-(2-norbornan-2-ylethyl)anilino]-5-methyl-N-methylsulfonyl-thiazole-4-carboxamide] |
| 794 nM | 39.8 nM | Cc1oc(N(CCc2ccc(C#N)cc2)Cc2ccc(F)cc2Cl)nc1C(=O)NS(C)(=O)=O [Compound 554, 2-[(2-chloro-4-fluoro-phenyl)methyl-[2-(4-cyanophenyl)ethyl]amino]-5-methyl-N-methylsulfonyl-oxazole-4-carboxamide] |
| 200 nM | 20 nM | Cc1sc(N(Cc2cccc(C(F)(F)F)c2)c2ccc(C#N)cc2)nc1C(=O)NS(C)(=O)=O [Compound 24, 2-[4-cyano-N-[[3-(trifluoromethyl)phenyl]methyl]anilino]-5-methyl-N-methylsulfonyl-thiazole-4-carboxamide] |
| 200 nM | 50.1 nM | Cc1sc(N(Cc2csc(C(C)C)n2)c2ccc(C#N)cc2)nc1C(=O)NS(C)(=O)=O [Compound 456, 2-[4-cyano-N-[(2-isopropylthiazol-4-yl)methyl]anilino]-5-methyl-N-methylsulfonyl-thiazole-4-carboxamide] |
| 316 nM | 79.4 nM | Cc1sc(N(Cc2ccc(F)cc2Cl)c2ccc(C#N)cc2)nc1C(=O)NS(C)(=O)=O [Compound 106, 2-[N-[(2-chloro-4-fluoro-phenyl)methyl]-4-cyano-anilino]-5-methyl-N-methylsulfonyl-thiazole-4-carboxamide] |
| 794 nM | 63.1 nM | Cc1sc(N(Cc2cc(Cl)ccc2F)c2ccc(C#N)cc2)nc1C(=O)NS(C)(=O)=O [Compound 126, 2-[N-[(5-chloro-2-fluoro-phenyl)methyl]-4-cyano-anilino]-5-methyl-N-methylsulfonyl-thiazole-4-carboxamide] |
| 398 nM | 39.8 nM | CCc1oc(N(Cc2ccc(C(F)(F)F)c(F)c2)c2ccc(C#N)cc2)nc1C(=O)NS(C)(=O)=O [Compound 655, 2-[4-cyano-N-[[3-fluoro-4-(trifluoromethyl)phenyl]methyl]anilino]-5-ethyl-N-methylsulfonyl-oxazole-4-carboxamide] |
